In patent US20230295130A1, “COMPOUND USEFUL AS CDK7 KINASE INHIBITOR AND USE THEREOF” (TYK MEDICINES, INC., priority 2020, published 2023):

Tests used:
[1] = tested on: ovarian cancer cells OVCAR3; assay: Cell anti-proliferation experiment, MTT (Table 4); format: cell-based, human; details: incubate 3 days
Description: (§1) Human breast cancer cells MDA-MB 231, MDA-MB453, ovarian cancer cells OVCAR3, colorectal cancer cells HCT-116 and lung cancer cells NCI-H209 were purchased from BNCC. DMEM medium (Bio-Channel), DMSO (dimethyl sulfoxide), MTT (thiazole blue), 0.25% EDTA-Tripsin (pancreatin digestive juice), 1×PBS (phosphate buffer, PH7.2), 96-well plate (Corning), fetal bovine serum (FBS), 10,000 U/mL penicillin-G/streptomycin, high-speed freezing centrifuge (EPPENDORF 5810R), enzyme-linked immunosorbent assay (Tecan Spark).
(§2) • A) Tumor cells were cultured to 80-90% density in DMEM (high sugar, containing 10% FBS and 100 U/mL penicillin-G/streptomycin) at 37° C., 5% CO2 and saturated humidity. • B) The culture medium was removed from the 10 cm culture dish. • C) Cells were washed with 10 ml 1×PBS. • D) 4 ml of 0.25% EDTA-Tripsin was added to an incubator to digest pancreatin for 5 minutes at 37° C. and 5% CO2, transferred to a 15 ml centrifuge tube, centrifuged for 5 minutes at 200 g, and supernatant was discarded to obtain cell precipitation. • E) The cell precipitation was resuspended with 4 ml DMEM medium, counted and adjusted to 50,000 cells/ml. • F) Cell suspension was added to a 96-well plate with a volume of 100 μL per well and cultured overnight in a 5% CO2 incubator at 37° C.
(§3) • A) Preparing the tested compound gradient dilution solution: TY 2600 1 mM, TY 2601 1 mM, TY-2648a 1 mM, TY-2648b 1 mM and TY-2650 1 mM storage solutions were prepared. Then 1.5 μl of storage solution was dissolved in 1.5 ml of DMSO-free culture solution, and then performed 3-fold continuous gradient dilution with 0.1% DMSO culture solution for a total of 9 concentrations. The concentrations of the diluted compound were as follows: • 333.33 nM, 111.11 nM, 37.03 nM, 12.35 nM, 4.15 nM, 1.37 nM, 0.46 nM, 0.15 nM • B) After full mixing, 100 μL of culture compound solution was taken to replace the culture solution in the cell culture plate, with 4 duplicated wells at each concentration; • C) The cells were transferred to incubator to incubate for 3 days.
(§4) • A) The cell culture plate was taken out and added with 5 mg/ml MTT 10 μL in the biosafety cabinet; • B) The cell culture plate was put back into the incubator and continued to incubate for 3 hours; • C) The cell culture plate was taken out to remove the culture solution, 100 μL isopropanol (containing 0.4 mM HCl, 0.1% NP-40) was added, shaking at room temperature for 30 minutes; • D) The absorbance value was measured at 570 nm on TECAN enzyme linked immunosorbent assay.

[2] = tested on: colorectal cancer cells HCT-116; assay: Cell anti-proliferation experiment, MTT (Table 4); format: cell-based, human; details: incubate 3 days
Description: as §1, §2, §3, §4

[3] = tested on: breast cancer cells MDA-MB 231; assay: Cell anti-proliferation experiment, MTT (Table 4); format: cell-based, human; details: incubate 3 days
Description: as §1, §2, §3, §4

[4] = tested on: breast cancer cells MDA-MB453; assay: Cell anti-proliferation experiment, MTT (Table 4); format: cell-based, human; details: incubate 3 days
Description: as §1, §2, §3, §4

[5] = biological target: CDK7/Cyclin H/MAT1 kinase (Homo sapiens (Human), UniProt P50613); assay: Enzyme activity test, mobility shift assay (Table 3); format: biochemical; details: 2 mM ATP, pre-incubated 0 and 60 minutes
Chain of CDK7/Cyclin H/MAT1 kinase (P50613 whole entry): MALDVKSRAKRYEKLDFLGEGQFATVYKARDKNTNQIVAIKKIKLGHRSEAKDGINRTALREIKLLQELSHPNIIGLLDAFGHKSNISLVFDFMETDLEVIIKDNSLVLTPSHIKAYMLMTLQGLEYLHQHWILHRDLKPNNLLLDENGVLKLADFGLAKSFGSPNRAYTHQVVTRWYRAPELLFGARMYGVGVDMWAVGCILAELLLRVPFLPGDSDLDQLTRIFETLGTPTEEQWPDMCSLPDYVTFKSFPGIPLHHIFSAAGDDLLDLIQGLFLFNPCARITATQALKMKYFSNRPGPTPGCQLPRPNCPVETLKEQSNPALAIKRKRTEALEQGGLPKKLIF
Chain of CDK7/Cyclin H/MAT1 kinase (P51946 whole entry partner): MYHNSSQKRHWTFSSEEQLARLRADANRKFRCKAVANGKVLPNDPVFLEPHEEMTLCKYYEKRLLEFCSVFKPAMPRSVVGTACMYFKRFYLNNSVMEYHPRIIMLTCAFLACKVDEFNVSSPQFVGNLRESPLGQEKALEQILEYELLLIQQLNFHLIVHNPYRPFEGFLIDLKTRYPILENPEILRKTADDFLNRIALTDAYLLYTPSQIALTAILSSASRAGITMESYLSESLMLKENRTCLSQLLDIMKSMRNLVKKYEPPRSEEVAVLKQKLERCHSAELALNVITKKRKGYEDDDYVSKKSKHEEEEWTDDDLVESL
Chain of CDK7/Cyclin H/MAT1 kinase (P51948 whole entry partner): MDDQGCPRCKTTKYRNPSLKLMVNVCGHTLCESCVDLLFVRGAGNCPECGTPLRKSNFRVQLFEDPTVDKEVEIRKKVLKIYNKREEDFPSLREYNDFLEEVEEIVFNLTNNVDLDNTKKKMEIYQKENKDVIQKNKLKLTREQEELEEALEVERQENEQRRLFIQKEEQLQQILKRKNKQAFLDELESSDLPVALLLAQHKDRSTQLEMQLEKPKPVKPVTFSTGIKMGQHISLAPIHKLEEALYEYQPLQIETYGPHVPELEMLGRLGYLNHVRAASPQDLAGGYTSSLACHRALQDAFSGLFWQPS
Procedure: IC50 values of the compounds for CDK7 kinase were detected in Wuxi Biortus Biosciences Co. Ltd.
The compound powder was dissolved in 100% DMSO to prepare a 10 mM storage solution. The storage solution was further diluted to 0.5 mM as the initial concentration, and continuously diluted 3 times to obtain 10 compound solutions with different concentrations. The compound and enzyme were pre-incubated for 0 minutes and 60 minutes, respectively, using duplicate detection.
was used as a positive control, using Mobility shift say method, to detect CDK kinase (such as CDK7, CDK9, CDK12 and CDK2) activity of the compound.

Row | SMILES | IC50 ([1]; Homo sapiens, OVCAR-3, 72 h) [nM] | IC50 ([2]; Homo sapiens, HCT-116, 72 h) [nM] | IC50 ([3]; Homo sapiens, MDA-MB-231, 72 h) [nM] | IC50 ([4]; Homo sapiens, MDA-MB-453, 72 h) [nM] | IC50 [5] [nM] | IC50 [1] [nM] | IC50 [2] [nM] | IC50 [3] [nM] | IC50 [4] [nM]
1 | CC1(C)CC[C@H](Nc2ncc(C(F)(F)F)c(-c3c[nH]c4c(P5(=O)CCCC5)c(C#N)ccc34)n2)CN1 [Example 01] | 10 to 500 | 10 to 500 | 10 to 500 | 10 to 500 | < 10 | – | – | – | –
2 | CC1(C)CC[C@H](Nc2ncc(C(F)(F)F)c(-c3c[nH]c4c(P5(=O)CCCC5)nccc34)n2)CN1 [Example 14] | 10 to 500 | 10 to 500 | 10 to 500 | 10 to 500 | < 10 | – | – | – | –
3 | COC(=O)Nc1ccc2c(-c3nc(N[C@H]4CCC(C)(C)NC4)ncc3C(F)(F)F)c[nH]c2c1P1(=O)CCCC1 [Example 20] | 10 to 500 | 10 to 500 | 10 to 500 | 10 to 500 | < 10 | – | – | – | –
4 | CC1(C)CC[C@H](Nc2ncc(C(F)(F)F)c(-n3cnc4c(P(C)(C)=O)c(C#N)ccc43)n2)CN1 [Example 31] | – | – | – | – | < 10 | 10 to 500 | 10 to 500 | 10 to 500 | 10 to 500
5 | CP(C)(=O)c1c(C#N)ccc2c(-c3nc(N[C@H]4CCC(=O)NC4)ncc3C(F)(F)F)c[nH]c12 [Example 48] | 10 to 500 | 10 to 500 | 10 to 500 | 10 to 500 | < 10 | – | – | – | –
